Source: publication PMC6984391, “Anion carriers as potential treatments for cystic fibrosis: transport in cystic fibrosis cells, and additivity to channel-targeting drugs” (Chemical Science, 2019)

Tested on: YFP-FRT cells
Assay: YFP fluorescence plate reader assay of anion transport in YFP-FRT cells
Assay type: cell-based, Fischer rat
Settings: for Corrected absolute initial slope |dF/dT|: transporter 50 μM, DMSO 0.5% v/v, DMSO-only subtracted, I^– 100 mM; for anion transport activity in YFP-FRT cells (in words): 50 μM
Experimental: We treated YFP-FRT cells with anionophores (final concentration, 1–50 μM) or the vehicle DMSO (0.1–0.5% v/v) by direct addition to the phosphate-buffered saline (PBS) bathing the cells. After incubating YFP-FRT cells with anionophores for 10 minutes at 37 °C, we evaluated anion transport activity by adding I^– (100 mM), using a PBS iodide solution with Cl^– replaced by I^–, and following cell fluorescence for 14 s. FRT cells are relatively impermeable to anions because they lack key ion channels found in epithelial cells, including CFTR.[33] Thus, in the absence of anionophore, iodide cannot enter YFP-FRT cells and no quenching of fluorescence occurs. By contrast, in the presence of an anionophore, iodide influx occurs leading to fluorescence quenching.[29]
To quantify anion transport by different anionophores, we fitted first order exponential functions to the iodide-induced fluorescence decay to measure the initial slope, averaging values over multiple experiments. Fig. 2b and Table 1 summarise the data. Consistent with our previous results,[29] we observed a wide range of anion transport activity. […] We therefore selected for further study 11, 12, 15 and 19.
FRT cells stably expressing the halide sensor YFP-H148Q/I152L6 were generous gifts of AS Verkman (University of California, San Francisco), while CFBE41o- cells7 stably expressing YFP (YFP-CFBE cells) were a generous gift of LJV Galietta (Telethon Institute for […]
Genetics and Medicine). […]
U ml-1 penicillin and […] streptomycin. All cells were incubated at 37 °C in a humidified atmosphere with 5% CO2. […]
Fluorescence plate reader assay […]
quenching of YFP fluorescence at 37 °C using a microplate reader following the method of Galietta et al..9 The microplate reader (model: FLUORstar Omega; BMG LABTECH Ltd., Aylesbury, UK) was equipped with a syringe pump and excitation (500 ± 10 nm) and emission (535 ± 15 nm) filters (Chroma Technology GmbH, Olching, Germany). After washing cells twice with PBS (composition (mM): 137 NaCl, 2.7 KCl, 8.1 Na2HPO4, 1.5 KH2PO4, 1 CaCl2 and 0.5 MgCl2, pH 7.40), cells were incubated with test anionophores (1 – 50 µM) or the vehicle (DMSO [0.1 – 0.5% v v-1]) in 40 µl of PBS for 10 – 120 minutes according to the experimental design. Other compounds, including forskolin, ivacaftor and channel inhibitors were added to […]
the PBS bathing cells 10 minutes prior to PBS iodide addition, whereas UTP was added to cells with the PBS iodide solution. Fluorescence was measured for 14 seconds; 2 seconds before and 12 seconds after injection of 110 µl PBS iodide solution (137 mM Cl- replaced by I-) into each well (to obtain a final concentration of I- of 100 mM).
We expressed cell fluorescence values (F) relative to the fluorescence value immediately before I- injection (F0), excluding the initial decrease, which likely represents the quenching of extracellular YFP released from cells and signal reduction accompanying the increase in solution volume bathing cells. To quantify anion transport by test anionophores, we determined the initial slope of the fluorescence decay following I - addition by fitting first order exponential functions to the last 12 seconds of each fluorescence recording. In each experim ent, n values represent the mean of two replicates and all treatments were tested at least three times using different microplates. […]
FRT cells was selected and the cells were perfused with (i) PBS for 5 minutes then (ii) PBS containing I- (10 mM) (made by preparing PBS with 127 mM NaCl to maintain osmolarity) for 5 minutes and finally (iii) PBS for 30 minutes to remove thoroughly I- from the perfusion chamber. YFP-FRT cells were repeatedly treated with I- (10 mM) and then washed with PBS […]
During all interventions, the rate of solution perfusion was 8 – 10 ml min-1; temperature was 37 °C and except for the first

SMILES	Corrected absolute initial slope |dF/dT|	anion transport activity in YFP-FRT cells (in words)
COCCOCCOC(=O)[C@]12CC[C@@H](NC(=O)Nc3ccc(C(F)(F)F)cc3)C[C@@H]1C[C@@H](NC(=O)Nc1ccc(C(F)(F)F)cc1)CC2 [Compound 9]	1.1 ×10^–3 s^–1	–
CCOC(=O)[C@]12CC[C@@H](NC(=S)Nc3ccc([N+](=O)[O-])cc3)C[C@@H]1C[C@@H](NC(=S)Nc1ccc([N+](=O)[O-])cc1)CC2 [Compound 12]	17.2 ×10^–3 s^–1	notable decays in fluorescence
FC(F)(F)c1ccc(NC(=S)NCCN(CCNC(=S)Nc2ccc(C(F)(F)F)cc2)CCNC(=S)Nc2ccc(C(F)(F)F)cc2)cc1 [Compound 18]	1.1 ×10^–3 s^–1	–
CCCCCCCCOC(=O)[C@]12CC[C@@H](NC(=S)Nc3ccc([N+](=O)[O-])cc3)C[C@@H]1C[C@@H](NC(=S)Nc1ccc([N+](=O)[O-])cc1)CC2 [Compound 13]	3.3 ×10^–3 s^–1	intermediate levels
COCCOCCOC(=O)[C@]12CC[C@@H](NC(=O)Nc3cc(C(F)(F)F)cc(C(F)(F)F)c3)C[C@@H]1C[C@@H](NC(=O)Nc1cc(C(F)(F)F)cc(C(F)(F)F)c1)CC2 [Compound 10]	0.7 ×10^–3 s^–1	–
FC(F)(F)c1cc(NC(=S)NCCN(CCNC(=S)Nc2cc(C(F)(F)F)cc(C(F)(F)F)c2)CCNC(=S)Nc2cc(C(F)(F)F)cc(C(F)(F)F)c2)cc(C(F)(F)F)c1 [Compound 19]	12.2 ×10^–3 s^–1	notable decays in fluorescence
CCOC(=O)[C@]12CC[C@@H](NC(=S)Nc3cc(C(F)(F)F)cc(C(F)(F)F)c3)C[C@@H]1C[C@@H](NC(=S)Nc1cc(C(F)(F)F)cc(C(F)(F)F)c1)CC2 [Compound 15]	22.6 ×10^–3 s^–1	notable decays in fluorescence
